# Laboratory results as given in US20180087079A1, “METHODS OF USING CELL-CYCLE INHIBITORS TO MODULATE ONE OR MORE PROPERTIES OF A CELL CULTURE” (AMGEN INC., priority 2013, published 2018).
# Tested on: transfected CHO cells expressing recombinant human monoclonal antibody (cell line 1)
# Experiment: 24-deep well culture, cell line 1: VCD, viability, titer, qP
# Type: cell-based, Chinese hamster
# Conditions: for Titer / VCD / Viability / qP: Cell Line 1
# Experimental: Transfected CHO cells expressing a recombinant human monoclonal antibody (mAb) are cultured in 24-deep well plates with seeding density at 1×10^7/mL for five days. At certain time periods, samples of the cultures are taken and evaluated for viable cell density (VCD; expressed in 10^6 cells/mL); percent viability (as determined by trypan blue exclusion); titer of recombinant protein (expressed in grams of protein per liter of culture, or g/L, as determined by Protein A affinity HPLC); qP, or specific productivity (expressed in picograms of recombinant protein per cell per day, or pg/c/d), the presence or absence of high molecular weight substances (usually an indicator of protein aggregation; expressed as % of the total protein); and the relative percentage of Mannose 5, a major intermediate glyco-form that attaches to N297 of the mAb. N-linked glycosylation has an impact on the tertiary structure of the antibody and may affect Fc mediated antibody effector functions. The majority of the human Fc glycans are complex biantennary structures with galactose as the prevalent terminal sugar. Immature glyco-forms, such as high-mannose glycol-forms (Man5-9), are of concern due to potential higher plasma clearance rate (as compared to the clearance rate of complex glycan linked mAbs).
# Compounds are further evaluated essentially as described in Example 2 herein. Briefly, transfected CHO cells expressing recombinant human monoclonal antibody (mAb; two different cell lines expressing two different mAb, referred to as cell line 1 and cell line 2) are cultured in 24-deep well plates in the presence or absence of the compounds. At specified time points, samples of the cultures are taken and evaluated for viable cell density (VCD; expressed in 10^6 cells/mL); percent viability (as determined by any method known in the art); titer of recombinant protein (expressed in grams of protein per liter of culture, or g/L, as determined by Protein A affinity HPLC); qP, or specific productivity (expressed in picograms of recombinant protein per cell per day, or pg/c/d). Additional parameters measure include the presence or absence of high molecular weight substances (usually an indicator of protein aggregation; expressed as % of the total protein); and the relative percentage of Mannose 5. For comparison purposes, Compounds A and B, which had been previously tested, were tested again.
compound,measurement,setting,value
"OC1CCN(c2ccc(Nc3ncc4c5ccncc5n(C5CCCC5)c4n3)nn2)C1 (stereo not shown) [Compound G, 1-(6-((9-cyclopentyl-9H-pyrido[4′,3′:4,5]pyrrolo[2,3-d]pyrimidin-2-yl)amino)pyridazin-3-yl)pyrrolidin-3-ol]",Titer,"5 microM, D 1",0.48 g/L
same,VCD,"5 microM, D 1",11.74 e6/mL
same,Viability,"5 microM, D 1",95.55%
same,qP,"5 microM, D 1",40.59 pg/c/d
same,Titer,"5 microM, D 2",0.66 g/L
same,VCD,"5 microM, D 2",10.58 e6/mL
same,Viability,"5 microM, D 2",88.10%
same,qP,"5 microM, D 2",62.69 pg/c/d
same,Titer,"5 microM, D 3",0.96 g/L
same,VCD,"5 microM, D 3",11.02 e6/mL
same,Viability,"5 microM, D 3",83.82%
same,qP,"5 microM, D 3",86.81 pg/c/d
same,Titer,"5 microM, D 4",0.98 g/L
same,VCD,"5 microM, D 4",13.45 e6/mL
same,Viability,"5 microM, D 4",82.62%
same,qP,"5 microM, D 4",72.60 pg/c/d
same,Titer,"10 microM, D 1",0.47 g/L
same,VCD,"10 microM, D 1",11.65 e6/mL
same,Viability,"10 microM, D 1",95.31%
same,qP,"10 microM, D 1",40.64 pg/c/d
same,Titer,"10 microM, D 2",0.80 g/L
same,VCD,"10 microM, D 2",9.95 e6/mL
same,Viability,"10 microM, D 2",85.90%
same,qP,"10 microM, D 2",80.10 pg/c/d
same,Titer,"10 microM, D 3",0.94 g/L
same,VCD,"10 microM, D 3",10.48 e6/mL
same,Viability,"10 microM, D 3",81.90%
same,qP,"10 microM, D 3",89.39 pg/c/d
same,Titer,"10 microM, D 4",1.08 g/L
same,VCD,"10 microM, D 4",13.58 e6/mL
same,Viability,"10 microM, D 4",79.61%
same,qP,"10 microM, D 4",79.79 pg/c/d
same,effect on viability,summary of Table 2,minimal effects on viability
same,growth arrest,summary of Table 2,reasonably sustained growth arrest
"CN(C)C1CCN(c2ccc(Nc3ncc4c(n3)C3(C=CC(C)(C)CC3)c3cnccc3-4)nn2)CC1 (stereo not shown) [Compound H, N-(6-(4-(dimethylamino)piperidin-1-yl)pyridazin-3-yl)-4,4-dimethylspiro[cyclohex[2]ene-1,9′-pyrido[4′,3′:3,4]cyclopenta[1,2-d]pyrimidin]-2′-amine]",Titer,"10 microM, D 1",0.47 g/L
same,VCD,"10 microM, D 1",11.48 e6/mL
same,Viability,"10 microM, D 1",95.80%
same,qP,"10 microM, D 1",41.24 pg/c/d
same,Titer,"10 microM, D 2",0.69 g/L
same,VCD,"10 microM, D 2",12.58 e6/mL
same,Viability,"10 microM, D 2",89.83%
same,qP,"10 microM, D 2",55.12 pg/c/d
same,Titer,"10 microM, D 3",0.94 g/L
same,VCD,"10 microM, D 3",13.36 e6/mL
same,Viability,"10 microM, D 3",87.77%
same,qP,"10 microM, D 3",70.60 pg/c/d
same,Titer,"10 microM, D 4",0.92 g/L
same,VCD,"10 microM, D 4",16.49 e6/mL
same,Viability,"10 microM, D 4",86.93%
same,qP,"10 microM, D 4",56.01 pg/c/d
same,Titer,"20 microM, D 1",0.47 g/L
same,VCD,"20 microM, D 1",10.69 e6/mL
same,Viability,"20 microM, D 1",95.60%
same,qP,"20 microM, D 1",44.27 pg/c/d
same,Titer,"20 microM, D 2",0.68 g/L
same,VCD,"20 microM, D 2",11.08 e6/mL
same,Viability,"20 microM, D 2",87.70%
same,qP,"20 microM, D 2",61.66 pg/c/d
same,Titer,"20 microM, D 3",0.92 g/L
same,VCD,"20 microM, D 3",10.91 e6/mL
same,Viability,"20 microM, D 3",82.95%
same,qP,"20 microM, D 3",83.98 pg/c/d
same,Titer,"20 microM, D 4",0.97 g/L
same,VCD,"20 microM, D 4",12.99 e6/mL
same,Viability,"20 microM, D 4",81.36%
same,qP,"20 microM, D 4",74.65 pg/c/d
"Fc1ccc(-n2c3cnccc3c3cnc(Nc4ccc(N5CCNCC5)cn4)nc32)c(F)c1 [Compound I, 9-(2,4-difluorophenyl)-N-(5-(piperazin-1-yl)pyridin-2-yl)-9H-pyrido[4′,3′:4,5]pyrrolo[2,3-d]pyrimidin-2-amine]",Titer,"0.625 microM, D 1",0.46 g/L
same,VCD,"0.625 microM, D 1",11.17 e6/mL
same,Viability,"0.625 microM, D 1",95.26%
same,qP,"0.625 microM, D 1",41.50 pg/c/d
same,Titer,"0.625 microM, D 2",0.66 g/L
same,VCD,"0.625 microM, D 2",11.98 e6/mL
same,Viability,"0.625 microM, D 2",89.90%
same,qP,"0.625 microM, D 2",55.10 pg/c/d
same,Titer,"0.625 microM, D 3",0.89 g/L
same,VCD,"0.625 microM, D 3",12.81 e6/mL
same,Viability,"0.625 microM, D 3",85.53%
same,qP,"0.625 microM, D 3",69.73 pg/c/d
same,Titer,"0.625 microM, D 4",1.07 g/L
same,VCD,"0.625 microM, D 4",16.91 e6/mL
same,Viability,"0.625 microM, D 4",85.47%
same,qP,"0.625 microM, D 4",63.09 pg/c/d
same,Titer,"1.25 microM, D 1",0.46 g/L
same,VCD,"1.25 microM, D 1",10.89 e6/mL
same,Viability,"1.25 microM, D 1",94.78%
same,qP,"1.25 microM, D 1",42.55 pg/c/d
same,Titer,"1.25 microM, D 2",0.66 g/L
same,VCD,"1.25 microM, D 2",11.16 e6/mL
same,Viability,"1.25 microM, D 2",88.73%
same,qP,"1.25 microM, D 2",58.82 pg/c/d
same,Titer,"1.25 microM, D 3",0.89 g/L
same,VCD,"1.25 microM, D 3",12.25 e6/mL
same,Viability,"1.25 microM, D 3",85.80%
same,qP,"1.25 microM, D 3",72.68 pg/c/d
same,Titer,"1.25 microM, D 4",1.06 g/L
same,VCD,"1.25 microM, D 4",15.33 e6/mL
same,Viability,"1.25 microM, D 4",84.19%
same,qP,"1.25 microM, D 4",69.35 pg/c/d
"CC1(C)CN(c2ccc(Nc3ncc4c5ccncc5n(-c5ccc(F)cc5F)c4n3)nc2)CCN1 [Compound J, 9-(2,4-difluorophenyl)-N-(5-(3,3-dimethylpiperazin-1-yl)pyridin-2-yl)-9H-pyrido[4′,3′:4,5]pyrrolo[2,3-d]pyrimidin-2-amine]",Titer,"0.625 microM, D 1",0.45 g/L
same,VCD,"0.625 microM, D 1",11.40 e6/mL
same,Viability,"0.625 microM, D 1",94.94%
same,qP,"0.625 microM, D 1",39.77 pg/c/d
same,Titer,"0.625 microM, D 2",0.68 g/L
same,VCD,"0.625 microM, D 2",14.02 e6/mL
same,Viability,"0.625 microM, D 2",91.87%
same,qP,"0.625 microM, D 2",48.50 pg/c/d
same,Titer,"0.625 microM, D 3",0.88 g/L
same,VCD,"0.625 microM, D 3",16.48 e6/mL
same,Viability,"0.625 microM, D 3",90.31%
same,qP,"0.625 microM, D 3",53.61 pg/c/d
same,Titer,"0.625 microM, D 4",0.99 g/L
same,VCD,"0.625 microM, D 4",19.37 e6/mL
same,Viability,"0.625 microM, D 4",89.98%
same,qP,"0.625 microM, D 4",51.10 pg/c/d
same,Titer,"1.25 microM, D 1",0.44 g/L
same,VCD,"1.25 microM, D 1",11.54 e6/mL
same,Viability,"1.25 microM, D 1",94.24%
same,qP,"1.25 microM, D 1",38.41 pg/c/d
same,Titer,"1.25 microM, D 2",0.64 g/L
same,VCD,"1.25 microM, D 2",11.25 e6/mL
same,Viability,"1.25 microM, D 2",87.53%
same,qP,"1.25 microM, D 2",57.19 pg/c/d
same,Titer,"1.25 microM, D 3",0.86 g/L
same,VCD,"1.25 microM, D 3",14.06 e6/mL
same,Viability,"1.25 microM, D 3",84.29%
same,qP,"1.25 microM, D 3",61.40 pg/c/d
same,Titer,"1.25 microM, D 4",1.08 g/L
same,VCD,"1.25 microM, D 4",17.54 e6/mL
same,Viability,"1.25 microM, D 4",84.81%
same,qP,"1.25 microM, D 4",61.77 pg/c/d
